#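 Following 48 hours of exposure in 96-well plates, responses at five concentrations were used to interpolate endpoints linearly. The concentration for 50% growth inhibition is given as GI50. The concentration for full growth arrest is given as TGI.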
# Columns and labels:
# Assay in all cases: growth of human tumour cells (NCI), 48 h
# [1] = tested on: SN12C renal
# [2] = tested on: SR leukemia
# [3] = tested on: ACHN renal
# [4] = tested on: CAKI-1 renal
# [5] = tested on: MOLT-4 leukemia
# [6] = tested on: SF-539 CNS
# [7] = tested on: RXF 393 renal
# [8] = tested on: HCT-116 colon
# [9] = tested on: NCI-H226 lung
# [10] = tested on: LOX IMVI melanoma
Compound,TGI [1] [µM],TGI [2] [µM],TGI [3] [µM],TGI [4] [µM],TGI [5] [µM],TGI [6] [µM],TGI [7] [µM],TGI [8] [µM],TGI [9] [µM],TGI [10] [µM],GI50 [1] [µM],GI50 [10] [µM],GI50 [3] [µM],GI50 [4] [µM],GI50 [5] [µM],GI50 [6] [µM],GI50 [7] [µM],GI50 [8] [µM],GI50 [9] [µM],GI50 [2] [µM]
O=C(O)Cn1ccnc1[N+](=O)[O-],> 100,> 100,> 100,> 100,> 100,> 100,> 100,> 100,> 100,–,–,–,–,–,–,–,–,–,–,–
CCOc1ccc(-c2oc(/C=N/NS(=O)(=O)c3ccc(C)cc3)c([N+](=O)[O-])c2-c2ccc(OCC)cc2)cc1,27.5,–,23.7,43.1,> 24.8,30.7,29.3,3.92,28.4,12.6,–,–,–,–,–,–,–,–,–,–
COc1ccc2[nH]c(-c3ccccc3)cc2c1,> 100,–,> 100,> 100,> 100,> 100,> 100,> 100,> 100,> 100,> 100,> 100,> 100,> 100,> 100,> 100,> 100,> 100,> 100,–
NC(=O)c1c[se]c(C2OC(COP(=O)(O)CP(=O)(O)OCC3OC(n4cnc5c(N)ncnc54)C(O)C3O)C(O)C2O)n1 (stereo not given),> 100,> 100,> 100,> 100,> 100,> 100,> 100,> 100,> 100,–,–,–,–,–,–,–,–,–,–,–
COC(=O)C1(F)C(=O)NC(=O)NC1OC (stereo not given),> 100,> 100,> 100,> 100,> 100,> 100,–,94.7,> 100,> 100,–,–,–,–,–,–,–,–,–,–
CC1(C)OC(COCCOCCCCCO)C(COCCOCCCCCO)O1 (stereo not given),> 100,> 100,> 100,> 100,> 100,–,> 100,> 100,> 100,> 100,–,–,–,–,–,–,–,–,–,–
c1ccc(NC[Si]23OCCN(CCO2)CCO3)cc1,> 100,> 100,> 100,> 100,> 100,> 100,> 100,> 100,> 100,–,–,–,–,–,–,–,–,–,–,–
COc1cc(O)c(C(C)=O)c(O)c1,> 100,> 100,> 100,–,–,> 100,> 100,> 100,–,> 100,–,–,–,–,–,–,–,–,–,–
O=[N+]([O-])C1C2C=CC(C2)[C@H]1c1ccc(Cl)cc1Cl (stereo not given in full),> 100,> 100,> 100,–,> 100,> 100,74.1,> 100,> 100,> 100,–,–,–,–,–,–,–,–,–,–
CC1(C)CC(=O)c2c(oc3cc(O)c(O)cc23)C1,> 100,> 100,> 100,76.6,> 100,> 100,> 100,–,–,31.4,–,–,–,–,–,–,–,–,–,–
CC(c1ccccc1)N1CC(C)(c2ccccc2)N(O)C(c2ccccc2)C1C (stereo not given),–,–,45.4,–,29.8,26.5,36.8,11.6,–,30.1,–,–,–,–,–,–,–,–,–,–
O=C(Nc1ccc(Cl)cc1)Nc1ccccc1CNc1nc(Nc2ccc(OCCN3CCCC3)cc2)ncc1Cl,1.74,50,1.78,14,2.99,1.61,1.76,1.85,–,1.64,0.913,0.901,0.929,7.44,1.19,0.863,0.898,0.927,–,1.7
Cc1ccccc1NC(=O)C(=O)CC(=O)c1ccc([N+](=O)[O-])cc1,> 100,–,> 100,> 100,–,> 100,> 100,> 100,> 100,> 100,–,–,–,–,–,–,–,–,–,–
C/C(=N\n1c(N)c(C#N)c(-c2ccc(Cl)cc2)c(C#N)c1=O)c1ccncc1,41.1,> 100,49.5,> 100,> 100,–,–,31.7,54.5,> 100,9.88,35.4,20.9,16.7,> 100,–,–,11.9,18.5,3.3
COc1ccc(-c2cc(/C=C/C(=O)c3cc(OC)c(OC)c(OC)c3)[nH]n2)cc1OC,3.83,2.26,2.82,–,8.86,1.48,3.16,1.79,7.91,2.88,1.77,1.46,1.45,–,1.81,0.309,1.53,0.425,1.93,0.22
Cc1cc(=O)oc2cc(OCCn3c(C)nn(-c4ccc(Cl)cc4)c3=O)ccc12,> 100,6.67,> 100,> 100,> 100,47.3,30,> 100,–,> 100,5.54,4.83,5.59,> 100,4.71,4.06,2.76,3.57,–,0.497
NC(N)=N/N=C/c1c(-c2ccc(Cl)c([N+](=O)[O-])c2)nc2n1CCS2,9.04,–,37.2,28,36,26.5,–,2.97,24,7.09,2.29,2.43,15.7,13.5,3.4,7.4,–,1.62,4.24,–
CCOC1=C2NC(Cc3ccc(F)cc3)=NC2C(=O)c2ccccc21 (stereo not given),–,–,> 100,–,46.7,36,73.5,–,–,71.4,–,–,–,–,–,–,–,–,–,–
COC(=O)C(C(=O)C(=O)NC1Nc2ccc(C)cc2S1)c1nc2ccc(Cl)cc2[nH]c1=O (stereo not given),> 100,–,> 100,> 100,–,> 100,> 100,> 100,> 100,> 100,–,–,–,–,–,–,–,–,–,–

Compound,TGI [1] [µM],TGI [2] [µM],TGI [3] [µM],TGI [4] [µM],TGI [5] [µM],TGI [6] [µM],TGI [7] [µM],TGI [8] [µM],TGI [9] [µM],TGI [10] [µM],GI50 [1] [µM],GI50 [10] [µM],GI50 [3] [µM],GI50 [4] [µM],GI50 [5] [µM],GI50 [6] [µM],GI50 [7] [µM],GI50 [8] [µM],GI50 [9] [µM],GI50 [2] [µM]
COc1cc2cccc(N=Cc3c(Br)ccc(OC)c3OC(C)C)c2cc1OC,> 100,–,> 100,70.2,> 100,> 100,–,96,–,–,–,–,–,–,–,–,–,–,–,–
CC1(C)C2CCC13C(=O)C1OC3(C2)C2C(=O)c3c(O)cccc3C(=O)C12 (stereo not given),1.84,–,2.98,2.95,–,8.05,3.5,2.3,23.8,–,0.711,–,1.56,1.4,0.111,2.64,1.56,1.09,7.68,–
COc1ccc(C(=O)C[C@]2(O)C(=O)Nc3c(Cl)ccc(Cl)c32)cc1,> 100,> 100,> 100,> 100,> 100,3.99,–,24.6,> 100,> 100,0.87,0.581,0.774,0.492,0.533,0.478,–,0.406,3.02,0.243
CCCCCCCCCCCCCCCCS(=O)(=O)c1ccc(NN)cc1,> 10,> 10,> 10,> 10,> 10,> 10,> 10,> 10,–,> 10,–,–,–,–,–,–,–,–,–,–
CC(=O)OCCC(O[Si](c1ccccc1)(c1ccccc1)C(C)(C)C)C(C)(C)O (stereo not given),34.2,–,> 100,–,63,63.8,36.6,31.2,36,57.8,–,–,–,–,–,–,–,–,–,–
c1cnc2[nH]cc(-c3csc(-c4cn(CCCN5CCCCC5)c5ccccc45)n3)c2c1,3.22,3.74,3.05,–,3.52,3.1,–,–,–,–,1.68,–,1.66,–,1.82,1.68,–,–,–,1.89
CC[P+]1(CC)CCCC1,> 100,–,> 100,> 100,> 100,> 100,> 100,–,–,> 100,–,–,–,–,–,–,–,–,–,–
CC(=O)[CH-]C(=O)c1ccccc1.CC(=O)[CH-]C(=O)c1ccccc1.[CH2-]CCC.[CH2-]CCC.[Sn+4],2.68,–,2.86,1.22,1.86,2.77,0.784,2.78,2.28,2.47,1.14,1.06,1.49,0.322,0.421,1.36,0.258,1.38,0.526,–
Cn1cc(CO)c2ccccc21,> 100,> 100,> 100,> 100,> 100,> 100,> 100,> 100,> 100,–,50.9,–,> 100,18.3,40,40.6,49.7,26.9,64.1,17.9
COc1ccc2[nH]c3c(=O)[nH]ncc3c2c1,–,> 100,> 100,–,> 100,> 100,–,> 100,> 100,> 100,–,–,–,–,–,–,–,–,–,–
COc1ccc(NC(=O)c2sc3nc4c(cc3c2N)CCCC4)cc1,> 100,16.3,> 100,–,30.5,6.52,4.72,11,–,> 100,1.43,0.686,0.627,–,0.442,0.372,0.452,0.355,–,0.3
COC(=O)[C@H](Cc1ccccc1)NC(=O)c1csc([C@@H](C[C@H](C(C)C)N(C)C(=O)[C@@H](NC(=O)[C@H]2CCCN2C)C2CC2)OC(C)=O)n1,> 33.3,> 33.3,> 33.3,> 33.3,> 33.3,1.55,–,21.4,> 33.3,> 33.3,0.548,0.301,1.44,0.793,0.215,0.29,–,0.138,3.93,0.0103
COc1nc2c(c(O)c(C)c(=O)n2OC2OC(COC(C)=O)C(OC(C)=O)C(OC(C)=O)C2OC(C)=O)c(=O)n1C (stereo not given),> 100,> 100,> 100,–,> 100,> 100,> 100,> 100,> 100,> 100,–,–,–,–,–,–,–,–,–,–
COc1ccc(C2NCCc3c2[nH]c2ccccc32)cc1 (stereo not given),> 100,91.5,> 100,–,> 100,> 100,> 100,> 100,> 100,> 100,–,–,–,–,–,–,–,–,–,–
CCOC(=O)C[C@@]12CCCNC1(C)CCc1ccccc12 (stereo not given in full),> 100,–,> 100,–,> 100,> 100,–,> 100,> 100,> 100,–,–,–,–,–,–,–,–,–,–
Fc1c[c-]c(-c2ccccn2)c(F)c1.[CH3-].[Pt+2].c1ccc(P(C[PH+](c2ccccc2)c2ccccc2)c2ccccc2)cc1,1.77,–,1.49,1.96,5.81,1.62,1.49,1.29,2.09,1.28,0.502,0.539,0.792,0.869,0.825,0.838,0.702,0.494,0.559,–
O=C(O)[C@@H]1CCCC[C@@H]1C(=O)N(C1CCCCC1)C1CCCCC1,> 100,> 100,> 100,> 100,> 100,> 100,–,> 100,> 100,> 100,–,–,–,–,–,–,–,–,–,–
CC12OC(C(=O)C13CCC3)C1C(=O)c3ccccc3C(=O)C12 (stereo not given),> 100,–,> 100,> 100,> 100,> 100,–,> 100,> 100,–,76.7,–,> 100,32.7,37.6,> 100,–,> 100,38.4,–

# Reference: PubChem BioAssay (NCI)
